Laboratory results from ChEMBL document CHEMBL3885861, “Open TG-GATES”.

Species on record: Rattus norvegicus
Experiment: Open TG-GATES - Regimen: Single
Assay type: toxicity, organism-based, Sprague-Dawley
Set-up: regimen Single, gender Male, age 6 weeks
Conditions: in vivo, po, 20 mg/kg, route gavage, dose level Low; for APTT / Bas / Eos / Fbg / Hb / Ht / Lym / MCH / MCHC / MCV / Mono / Neu / PT / Plat / RBC / Ret / WBC: tissue Blood; for KIDNEY_TOTAL: tissue Kidney; for LIVER: tissue Liver; for A/G / ALP / ALT / AST / BUN / CRE / Ca / Cl / DBIL / GLC / IP / K / LDH / Na / PL / RALB / TBIL / TC / TG / TP / gamma-GTP: tissue Plasma

Structure (SMILES): CN(CCOc1ccc(CC2SC(=O)NC2=O)cc1)c1ccccn1.O=C(O)/C=C\C(=O)O (centres undefined) [ROSIGLITAZONE MALEATE]
- TERMINAL_BW (3 h): 211.2 g
- APTT (3 h): 16 s
- Bas (3 h): 0%
- Eos (3 h): 0.6%
- Fbg (3 h): 208.6 mg/dL
- Hb (3 h): 13.1 g/dL
- Ht (3 h): 39.8%
- Lym (3 h): 75.6%
- MCH (3 h): 21.5 pg
- MCHC (3 h): 32.9%
- MCV (3 h): 65.3 fL
- Mono (3 h): 9.2%
- Neu (3 h): 14.2%
- PT (3 h): 12.2 s
- Plat (3 h): 111.6 x10_4/uL
- RBC (3 h): 609 x10_4/ul
- Ret (3 h): 8.8%
- WBC (3 h): 102 x10_2/uL
- KIDNEY_TOTAL (3 h): 0.8 g
- LIVER (3 h): 10.3 g
- A/G (3 h): 2.1
- ALP (3 h): 1342 IU/L
- ALT (3 h): 38.8 IU/L
- AST (3 h): 70.4 IU/L
- BUN (3 h): 13.2 mg/dL
- CRE (3 h): 0.4 mg/dL
- Ca (3 h): 11.2 mg/dL
- Cl (3 h): 103.2 meq/L
- DBIL (3 h): 0.016 mg/dL
- GLC (3 h): 179.2 mg/dL
- IP (3 h): 8.4 mg/dL
- K (3 h): 4.3 meq/L
- LDH (3 h): 104 IU/L
- Na (3 h): 139.6 meq/L
- PL (3 h): 151.2 mg/dL
- RALB (3 h): 3.6 g/dL
- TBIL (3 h): 0.052 mg/dL
- TC (3 h): 84.4 mg/dL
- TG (3 h): 113.4 mg/dL
- TP (3 h): 5.4 g/dL
- gamma-GTP (3 h): 0.6 IU/L
- TERMINAL_BW (6 h): 199.3 g
- APTT (6 h): 16.4 s
- Bas (6 h): 0%
- Eos (6 h): 0.8%
- Fbg (6 h): 208.8 mg/dL
- Hb (6 h): 13.1 g/dL
- Ht (6 h): 39.8%
- Lym (6 h): 78%
- MCH (6 h): 21.3 pg
- MCHC (6 h): 32.8%
- MCV (6 h): 64.9 fL
- Mono (6 h): 6.4%
- Neu (6 h): 15.2%
- PT (6 h): 12.1 s
- Plat (6 h): 118.2 x10_4/uL
- RBC (6 h): 614.6 x10_4/ul
- Ret (6 h): 8.5%
- WBC (6 h): 114.2 x10_2/uL
- KIDNEY_TOTAL (6 h): 0.7 g
- LIVER (6 h): 8.7 g
- A/G (6 h): 2.5
- ALP (6 h): 1335.2 IU/L
- ALT (6 h): 37 IU/L
- AST (6 h): 73 IU/L
- BUN (6 h): 9.2 mg/dL
- CRE (6 h): 0.4 mg/dL
- Ca (6 h): 11.1 mg/dL
- Cl (6 h): 103.6 meq/L
- DBIL (6 h): 0.014 mg/dL
- GLC (6 h): 184.6 mg/dL
- IP (6 h): 9.6 mg/dL
- K (6 h): 4.3 meq/L
- LDH (6 h): 72.8 IU/L
- Na (6 h): 138.2 meq/L
- PL (6 h): 135.2 mg/dL
- RALB (6 h): 3.7 g/dL
- TBIL (6 h): 0.048 mg/dL
- TC (6 h): 82.4 mg/dL
- TG (6 h): 73.8 mg/dL
- TP (6 h): 5.2 g/dL
- gamma-GTP (6 h): 0.8 IU/L
- TERMINAL_BW (9 h): 198.4 g
- APTT (9 h): 16.5 s
- Bas (9 h): 0%
- Eos (9 h): 1%
- Fbg (9 h): 219 mg/dL
- Hb (9 h): 12.7 g/dL
- Ht (9 h): 38.2%
- Lym (9 h): 73%
- MCH (9 h): 21.7 pg
- MCHC (9 h): 33.3%
- MCV (9 h): 65.1 fL
- Mono (9 h): 6%
- Neu (9 h): 20.4%
- PT (9 h): 12.2 s
- Plat (9 h): 118 x10_4/uL
- RBC (9 h): 586.6 x10_4/ul
- Ret (9 h): 9%
- WBC (9 h): 90.8 x10_2/uL
- KIDNEY_TOTAL (9 h): 0.7 g
- LIVER (9 h): 8.5 g
- A/G (9 h): 2.4
- ALP (9 h): 1181.6 IU/L
- ALT (9 h): 35.2 IU/L
- AST (9 h): 64.4 IU/L
- BUN (9 h): 12.2 mg/dL
- CRE (9 h): 0.3 mg/dL
- Ca (9 h): 11 mg/dL
- Cl (9 h): 104.6 meq/L
- DBIL (9 h): 0.01 mg/dL
- GLC (9 h): 192.4 mg/dL
- IP (9 h): 10.3 mg/dL
- K (9 h): 4.2 meq/L
- LDH (9 h): 80.6 IU/L
- Na (9 h): 140 meq/L
- PL (9 h): 130.6 mg/dL
- RALB (9 h): 3.8 g/dL
- TBIL (9 h): 0.044 mg/dL
- TC (9 h): 78.4 mg/dL
- TG (9 h): 57.6 mg/dL
- TP (9 h): 5.3 g/dL
- gamma-GTP (9 h): 0.8 IU/L
- TERMINAL_BW (24 h): 217.5 g
- APTT (24 h): 15.7 s
- Bas (24 h): 0%
- Eos (24 h): 1%
- Fbg (24 h): 232 mg/dL
- Hb (24 h): 12.8 g/dL
- Ht (24 h): 39%
- Lym (24 h): 74.2%
- MCH (24 h): 21.3 pg
- MCHC (24 h): 32.9%
- MCV (24 h): 64.8 fL
- Mono (24 h): 8%
- Neu (24 h): 17%
- PT (24 h): 11.4 s
- Plat (24 h): 119.2 x10_4/uL
- RBC (24 h): 602.6 x10_4/ul
- Ret (24 h): 7.1%
- WBC (24 h): 95 x10_2/uL
- KIDNEY_TOTAL (24 h): 0.7 g
- LIVER (24 h): 11.3 g
- A/G (24 h): 2.4
- ALP (24 h): 1603.4 IU/L
- ALT (24 h): 34.2 IU/L
- AST (24 h): 66.2 IU/L
- BUN (24 h): 16 mg/dL
- CRE (24 h): 0.4 mg/dL
- Ca (24 h): 11.3 mg/dL
- Cl (24 h): 104.2 meq/L
- DBIL (24 h): 0.014 mg/dL
- GLC (24 h): 190.2 mg/dL
- IP (24 h): 7.7 mg/dL
- K (24 h): 4.3 meq/L
- LDH (24 h): 102 IU/L
- Na (24 h): 141 meq/L
- PL (24 h): 153.4 mg/dL
- RALB (24 h): 3.9 g/dL
- TBIL (24 h): 0.034 mg/dL
- TC (24 h): 87.4 mg/dL
- TG (24 h): 128.2 mg/dL
- TP (24 h): 5.5 g/dL
- gamma-GTP (24 h): 1 IU/L
